Results: patent publication US9981972B2, “N-hydroxy bicyclic hydantoin carbamates as tools for identification of serine hydrolase targets” (ABIDE THERAPEUTICS, INC., priority 2014, dated 2018)
Like-named read-outs stand apart in the source and are kept apart here. One block for each compound: values may come before it.

Key:
[1] = test system: mouse LYPLA1/2 (quantified together); assay: IC50 by gel-based competitive ABPP in vitro, mouse brain membrane proteome; type: biochemical
Procedure: (§1) Assay Overview: The purpose of this assay was to determine IC50 values of powder samples of test compounds for enzyme of interest activity, and anti-targets in a complex proteomic lysate using a gel-based competitive ABPP assay. In this assay, a complex proteome was incubated with test compound followed by reaction with FP-Rh and SDS-PAGE analysis as described above.
(§2) Protocol Summary: Soluble HeLa cell proteome (50 μL reaction volume, 1 mg/mL in DPBS) or mouse brain membrane proteome (50 μL reaction volume, 1 mg/mL in DPBS) was treated with varying concentrations of test compound (1 μL of a 50× stock in DMSO) for 30 minutes at 37° C. FP-Rh (1 μL of 50× stock in DMSO) was added to a final concentration of 2 μM. The reaction was incubated for 30 minutes at 25° C., quenched with 16 μL 4×SDS-PAGE loading buffer (reducing), separated by SDS-PAGE and visualized by in-gel fluorescent scanning. The percentage activity remaining was determined by measuring the integrated optical density of the enzymes of interest, and anti-target bands relative to a DMSO-only (no compound) control. IC50 values were determined from dose-response curves from three replicates at each inhibitor concentration: 1, 10, 100, 1000, 10000 nM and 0.01, 0.1, 1, 10, 100, 1000, 10000, 50000, and 100000 nM.

ABHD4 = target: T1, ABHD4 (Homo sapiens, UniProt Q8TB40); assay: ABPP-SILAC, PC3 cells treated in situ; type: cell-based; design: endogenous in cells; host or cells: PC3; conditions: 4 h in situ; for inhibition of ABHD4 in PC3 cells: FP-biotin
T1 sequence (Q8TB40 1-342): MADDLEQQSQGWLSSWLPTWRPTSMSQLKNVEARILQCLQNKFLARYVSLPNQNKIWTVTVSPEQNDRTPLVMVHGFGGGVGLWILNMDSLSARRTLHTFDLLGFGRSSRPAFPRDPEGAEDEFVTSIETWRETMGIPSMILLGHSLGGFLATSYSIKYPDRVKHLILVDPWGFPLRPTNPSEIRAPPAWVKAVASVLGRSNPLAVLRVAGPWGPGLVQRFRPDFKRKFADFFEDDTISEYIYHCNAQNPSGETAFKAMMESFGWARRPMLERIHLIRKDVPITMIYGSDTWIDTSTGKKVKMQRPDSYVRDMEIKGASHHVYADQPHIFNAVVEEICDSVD
Procedure: In situ inhibitor treatments of human cell lines were performed as described previously (Hsu et al., J Med Chem 56, 8270-8279, 2012). Briefly, PC3 or transfected HEK293T cells were grown to confluency in serum-containing media (RPMI or DMEM, respectively). The culture media was then removed and replaced with fresh media containing DMSO or inhibitor at the desired concentration and incubated for 4 hours in a tissue culture incubator (37° C., 5% CO2). Cells were then washed with PBS, harvested, washed with PBS once more, and lysed with a probe sonicator.
The activity and selectivity of dual ABHD3/4 and ABHD4-preferring inhibitors in PC3 cells by ABPP-SILAC was assessed. Isotopically heavy and light PC3 cells were treated in situ with inhibitor (Compound 37 (1 μM) or Compound 38 (0.5 μM)) or DMSO for 4 h and then lysed and processed for ABPP-SILAC analysis.
To evaluate the broader selectivity of Compound 26 and Compound 34 across the SH class, heavy and light isotopically-labeled PC3 cells were treated with inhibitor [Compound 34 (1 μM); or Compound 26 (1 or 0.1 μM); 4 h) and DMSO, respectively, followed by ABPP-SILAC analysis with either the FP-biotin probe or the Compound 39 probe. […] Conversely, Compound 34 inhibited >90% of ABHD4 activity, as measured with either the FP-biotin probe or the Compound 39 probe, and cross-reacted with four additional targets—ABHD6, PAFAH2, PLA2G7, and PLA2G15.

PPT1 = target: T2, PPT1 (Homo sapiens, UniProt P50897); assay: PPT1 substrate assay in vitro, hPPT1-transfected HEK293T cell lysates; type: biochemical; design: expressed in transfected cells; host or cells: HEK293T; conditions: for activity against PPT1 in situ and in vitro: in words, figures in the 9th table
T2 sequence (P50897 28-306): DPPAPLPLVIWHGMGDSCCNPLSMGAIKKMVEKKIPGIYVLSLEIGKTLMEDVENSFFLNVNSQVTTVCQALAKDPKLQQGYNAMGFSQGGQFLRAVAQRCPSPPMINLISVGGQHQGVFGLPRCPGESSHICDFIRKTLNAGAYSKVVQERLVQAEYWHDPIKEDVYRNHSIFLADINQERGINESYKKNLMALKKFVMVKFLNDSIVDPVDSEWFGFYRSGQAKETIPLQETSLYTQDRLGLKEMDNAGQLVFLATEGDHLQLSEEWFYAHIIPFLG
Procedure: PPT1 activity was assessed in vitro using a substrate assay adapted from previous studies (van Diggelen et al., Molecular genetics and metabolism 66, 240-244, 1999). Lysates from HEK293T cells transfected with an empty vector, or human PPT1 under a CMV promoter were adjusted to 1 mg/ml in PBS (25 μl), and then combined 1:1 with Mcllvain's phosphate/citrate buffer containing 0.375% (v/v) Triton-X 100 and 15 mM DTT (pH 5.0). This sample was pre-treated with inhibitor or DMSO for 30 minutes at 37° C., and 10 μl (5 μg protein) was used in the substrate assay as follows: Samples were diluted in a black 96-well plate (half-area) with 20 μl McIlvain's phosphate/citrate buffer (pH 5.0) containing 0.375% TX-100 and 15 mM DTT, as well as 0.64 mM MU-6S-Palm-PD-Glc and 0.1 U sweet almond glucosidase (Sigma). The reactions were incubated at 37° C. for 1 hour, quenched with 120 μl sodium bicarbonate buffer (pH 10.0), and hydrolysis by 4-MU fluorescence measured by excitement at […] and emission intensity at […]. 16 μg protein was used for analysis of native PC3 cells.
Compound 26 was then tested to see if it inhibited PPT1 activity using a substrate assay. Endogenous substrates for PPT1 remain poorly characterized, but this enzyme was assayed with a fluorogenic substrate 4-methylumbelliferyl-6-thio-palmitate-βD-glucopyranoside (MU-6S-Palm-βD-Glc). In this assay, PPT1 hydrolyzes the substrate's palmitoyl thioester bond, and exogenous sweet almond β-glucosidase deglycosylates and frees the fluorophore, 4-methylumbelliferone (4-MU), which is measured to assess PPT1 activity.

human LYPLA1 = target: T3, human LYPLA1 (Homo sapiens, UniProt O75608); assay: IC50 by gel-based competitive ABPP in vitro, soluble HeLa cell proteome; type: biochemical
T3 construct: endogenous human LYPLA1/2 in a HeLa soluble proteome; endogenous in cells; host or cells: HeLa (soluble proteome in vitro; cultured cells in situ)
T3 sequence (O75608 whole entry): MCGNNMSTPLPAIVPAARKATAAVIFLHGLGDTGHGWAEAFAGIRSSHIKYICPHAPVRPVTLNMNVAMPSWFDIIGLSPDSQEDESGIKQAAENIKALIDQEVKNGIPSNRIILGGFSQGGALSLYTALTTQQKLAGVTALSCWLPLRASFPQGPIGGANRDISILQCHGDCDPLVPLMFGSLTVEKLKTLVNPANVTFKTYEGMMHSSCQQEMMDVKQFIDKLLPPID
Procedure: as §1, §2

[2] = mouse LYPLA1/2, in vitro, read-out: mLYPLA1/2 in vitro potency (IC50)
[3] = cell lysates, pH 5.0, MU-6S-Palm-βD-Glc substrate, 95% confidence intervals in parentheses, read-out: IC50 for inhibition of human PPT1, in vitro (substrate)
[4] = first value of the cell, read-out: hLYPLA1/2 in vitro potency (IC50): hLYPLA1

Compound: O=C(ON1C(=O)C2CN(Cc3ccc(Oc4ccccc4)cc3)CCN2C1=O)N1CCC(c2ccccc2)CC1 (centres unmarked) [Compound 38, 1,3-dioxo-7-(4-phenoxybenzyl)hexahydroimidazo[1,5-a]pyrazin-2(3H)-yl 4-phenylpiperidine-1-carboxylate]
inhibition of ABHD4 in PC3 cells (ABHD4; 0.5 μM): inhibit both ABHD3 and ABHD4

Compound: COc1ccc(N2CCN(C(=O)ON3C(=O)[C@@H]4CN(CC5CCN(Cc6ccccc6)CC5)CCN4C3=O)CC2)cc1 [Compound 42, (S)-7-((1-benzylpiperidin-4-yl)methyl)-1,3-dioxo-hexahydroimidazo[1,5-a]pyrazin-2(3H)-yl 4-(4-methoxyphenyl)piperazine-1-carboxylate]
IC50 (PPT1; human PPT1, in vitro, method not stated at Table 5, read-out: hPPT1 in vitro potency (IC50)): 3970 nM
IC50 [1, 2]: 29300 nM

Compound: O=C(ON1C(=O)C2CN(Cc3ccc(Oc4ccccc4)cc3)CCN2C1=O)N1CCOCC1 (centres unmarked) [Compound 34, 1,3-dioxo-7-(4-phenoxybenzyl)hexahydroimidazo[1,5-a]pyrazin-2(3H)-yl morpholine-4-carboxylate]
inhibition at 1 µM (ABHD4; PC-3, 1 μM, FP-biotin or Compound 39 probe): > 90%
IC50 (PPT1; [3]): > 50000 nM
activity against PPT1 in situ and in vitro (PPT1): limited activity against PPT1

Compound: COc1ccc(N2CCN(C(=O)ON3C(=O)C4CN(CC5CCN(Cc6ccccc6)CC5)CCN4C3=O)CC2)cc1 (centres unmarked) [Compound 26, 7-((1-benzylpiperidin-4-yl)methyl)-1,3-dioxohexahydroimidazo[1,5-a]pyrazin-2(3H)-yl 4-(4-methoxyphenyl)piperazine-1-carboxylate]
IC50 (PPT1; transfected lysates, pH 5.0, MU-6S-Palm-βD-Glc, read-out: PPT1 IC50, substrate assay): 6500 nM

Compound: COc1ccc(N2CCN(C(=O)ON3C(=O)C4CN(Cc5ccc(Oc6ccccc6)cc5)CCN4C3=O)CC2)cc1 (centres unmarked) [Compound 37, 1,3-dioxo-7-(4-phenoxybenzyl)hexahydroimidazo[1,5-a]pyrazin-2(3H)-yl 4-(4-methoxyphenyl)piperazine-1-carboxylate]
inhibition of ABHD4 in PC3 cells (ABHD4; 1 μM): completely inhibited

Continued, in another order:

IC50 [1, 2]: 117 nM
Compound: O=C(ON1C(=O)[C@@H]2CN(C(=O)N3CCOCC3)CCN2C1=O)N1CCC(CCc2ccc(Cl)cc2)CC1 [Compound 50, (S)-7-(morpholine-4-carbonyl)-1,3-dioxohexahydroimidazo[1,5-a]pyrazin-2(3H)-yl 4-(4-chloro-phenethyl)piperidine-1-carboxylate]

IC50 (PPT1; [3]): 15000 nM
activity against PPT1 in situ and in vitro (PPT1): did, however, inhibit PPT1 activity
IC50 ([1]; LYPLA1/2 quantified together, mouse brain membrane proteome, read-out: mouse LYPLA1/2 collective IC50 in vitro): 154 nM
IC50 (human LYPLA1; HeLa cell lysates, FP-Rh, read-out: human LYPLA1 IC50 in vitro): 122 nM
Compound: O=C(ON1C(=O)C2CN(C(=O)N3CCOCC3)CCN2C1=O)N1CCC(CCc2ccc(Cl)cc2)CC1 (centres unmarked) [Compound 1, 7-(morpholine-4-carbonyl)-1,3-dioxohexahydroimidazo[1,5-a]pyrazin-2(3H)-yl 4-(4-chloro-phenethyl)piperidine-1-carboxylate]
potency and selectivity for LYPLA1/2, concentration-dependent profiling ([1]; mouse brain membrane SHs, FIG. 7B): good potency and selectivity

IC50 [1, 2]: 97 nM
Compound: O=C(ON1C(=O)[C@H]2CN(C(=O)N3CCOCC3)CCN2C1=O)N1CCC(CCc2ccc(Cl)cc2)CC1 [Compound 51, (R)-7-(morpholine-4-carbonyl)-1,3-dioxohexahydroimidazo[1,5-a]pyrazin-2(3H)-yl 4-(4-chloro-phenethyl)piperidine-1-carboxylate]

IC50 (human LYPLA1; [4]): 1750 nM
Compound: C#Cc1ccc(CCC2CCN(C(=O)ON3C(=O)[C@@H]4CN(C(=O)N5CCOCC5)CCN4C3=O)CC2)cc1 [Compound 48, (S)-7-(morpholine-4-carbonyl)-1,3-dioxo-hexahydroimidazo[1,5-a]pyrazin-2(3H)-yl 4-(4-ethynylphenethyl)piperidine-1-carboxylate]

IC50 (human LYPLA1; [4]): 842 nM
Compound: C#Cc1ccc(CCC2CCN(C(=O)ON3C(=O)[C@H]4CN(C(=O)N5CCOCC5)CCN4C3=O)CC2)cc1 [Compound 49, (R)-7-(morpholine-4-carbonyl)-1,3-dioxo-hexahydroimidazo[1,5-a]pyrazin-2(3H)-yl 4-(4-ethynylphenethyl)piperidine-1-carboxylate]
